Assay results from ChEMBL document CHEMBL2434921, “New synthetic aliphatic sulfonamido-quaternary ammonium salts as anticancer chemotherapeutic agents” (2013).
The source made the active and inactive calls. The calls are words filed in the database; no cut-off is given here.

What was measured:
[1] = tested on: ACHN; assay: Growth of human ACHN cells at 10 uM after 48 hrs by SRB assay
[2] = tested on: PC-3; assay: Growth of human PC3 cells at 10 uM after 48 hrs by SRB assay; settings: PC-3, 48 h
[3] = tested on: NUGC-3; assay: Growth inhibition of human NUGC3 cells at 3 uM after 48 hrs by SRB assay; values are per cent of control; settings: NUGC-3, 48 h
[4] = tested on: MDA-MB-231; assay: Growth of human MDA-MB-231 cells at 0.1 uM after 48 hrs by SRB assay; settings: MDA-MB-231, 48 h
[5] = tested on: MDA-MB-231; assay: Growth inhibition of human MDA-MB-231 cells after 48 hrs by SRB assay; assay type: functional; settings: MDA-MB-231, 48 h
[6] = tested on: NUGC-3; assay: Growth of human NUGC3 cells at 1 uM after 48 hrs by SRB assay; settings: NUGC-3, 48 h
[7] = tested on: MDA-MB-231; assay: Growth of human MDA-MB-231 cells at 1 uM after 48 hrs by SRB assay; settings: MDA-MB-231, 48 h
[8] = tested on: HCT-15; assay: Growth inhibition of human HCT15 cells after 48 hrs by SRB assay; assay type: functional
[9] = tested on: MDA-MB-231; assay: Growth of human MDA-MB-231 cells at 3 uM after 48 hrs by SRB assay; values are per cent of control; settings: MDA-MB-231, 48 h
[10] = tested on: PC-3; assay: Growth inhibition of human PC3 cells at 1 uM after 48 hrs by SRB assay; values are per cent of control; settings: PC-3, 48 h
[11] = tested on: ACHN; assay: Growth of human ACHN cells at 0.3 uM after 48 hrs by SRB assay
[12] = tested on: HCT-15; assay: Growth inhibition of human HCT15 cells at 10 uM after 48 hrs by SRB assay; values are per cent of control; settings: HCT-15, 48 h
[13] = tested on: ACHN; assay: Growth of human ACHN cells at 0.1 uM after 48 hrs by SRB assay
[14] = tested on: HCT-15; assay: Growth of human HCT15 cells at 0.3 uM after 48 hrs by SRB assay; settings: HCT-15, 48 h
[15] = tested on: MDA-MB-231; assay: Growth of human MDA-MB-231 cells at 10 uM after 48 hrs by SRB assay; settings: MDA-MB-231, 48 h
[16] = tested on: MDA-MB-231; assay: Growth inhibition of human MDA-MB-231 cells at 0.3 uM after 48 hrs by SRB assay; values are per cent of control; settings: MDA-MB-231, 48 h
[17] = tested on: PC-3; assay: Growth inhibition of human PC3 cells at 0.1 uM after 48 hrs by SRB assay; values are per cent of control; settings: PC-3, 48 h
[18] = molecular target: Rho-related GTP-binding protein RhoB (Homo sapiens) (UniProt P62745); assay: Transactivation of RhoB (unknown origin) transfected in human HeLa cells at 5 uM measured over 10 secs by dual luciferase reporter gene assay; assay type: cell-based
[19] = tested on: PC-3; assay: Growth inhibition of human PC3 cells after 48 hrs by SRB assay; assay type: functional; settings: PC-3, 48 h
[20] = tested on: ACHN; assay: Growth inhibition of human ACHN cells after 48 hrs by SRB assay; assay type: functional
[21] = tested on: ACHN; assay: Growth inhibition of human ACHN cells at 3 uM after 48 hrs by SRB assay; values are per cent of control
[22] = tested on: NCI-H23; assay: Growth inhibition of human NCI-H23 cells at 3 uM after 48 hrs by SRB assay; values are per cent of control; settings: NCI-H23, 48 h
[23] = tested on: NCI-H23; assay: Growth inhibition of human NCI-H23 cells after 48 hrs by SRB assay; assay type: functional; settings: NCI-H23, 48 h
[24] = tested on: NCI-H23; assay: Growth inhibition of human NCI-H23 cells at 1 uM after 48 hrs by SRB assay; values are per cent of control; settings: NCI-H23, 48 h
[25] = tested on: NUGC-3; assay: Growth of human NUGC3 cells at 0.1 uM after 48 hrs by SRB assay; settings: NUGC-3, 48 h
[26] = tested on: HCT-15; assay: Growth of human HCT15 cells at 3 uM after 48 hrs by SRB assay; settings: HCT-15, 48 h
[27] = tested on: HCT-15; assay: Growth inhibition of human HCT15 cells at 1 uM after 48 hrs by SRB assay; values are per cent of control; settings: HCT-15, 48 h
[28] = tested on: NUGC-3; assay: Growth inhibition of human NUGC3 cells at 10 uM after 48 hrs by SRB assay; values are per cent of control; settings: NUGC-3, 48 h
[29] = tested on: NCI-H23; assay: Growth inhibition of human NCI-H23 cells at 0.1 uM after 48 hrs by SRB assay; values are per cent of control; settings: NCI-H23, 48 h
[30] = tested on: ACHN; assay: Growth inhibition of human ACHN cells at 1 uM after 48 hrs by SRB assay; values are per cent of control
[31] = tested on: NUGC-3; assay: Growth of human NUGC3 cells at 0.3 uM after 48 hrs by SRB assay; settings: NUGC-3, 48 h
[32] = tested on: HCT-15; assay: Growth inhibition of human HCT15 cells at 0.1 uM after 48 hrs by SRB assay; values are per cent of control; settings: HCT-15, 48 h
[33] = tested on: NCI-H23; assay: Growth of human NCI-H23 cells at 0.3 uM after 48 hrs by SRB assay; settings: NCI-H23, 48 h
[34] = tested on: PC-3; assay: Growth inhibition of human PC3 cells at 0.3 uM after 48 hrs by SRB assay; values are per cent of control; settings: PC-3, 48 h
[35] = tested on: NUGC-3; assay: Growth inhibition of human NUGC3 cells after 48 hrs by SRB assay; assay type: functional; settings: NUGC-3, 48 h
[36] = tested on: PC-3; assay: Growth inhibition of human PC3 cells at 3 uM after 48 hrs by SRB assay; values are per cent of control; settings: PC-3, 48 h
[37] = tested on: NCI-H23; assay: Growth of human NCI-H23 cells at 10 uM after 48 hrs by SRB assay; settings: NCI-H23, 48 h

Chain of Rho-related GTP-binding protein RhoB (Homo sapiens) (P62745 whole entry): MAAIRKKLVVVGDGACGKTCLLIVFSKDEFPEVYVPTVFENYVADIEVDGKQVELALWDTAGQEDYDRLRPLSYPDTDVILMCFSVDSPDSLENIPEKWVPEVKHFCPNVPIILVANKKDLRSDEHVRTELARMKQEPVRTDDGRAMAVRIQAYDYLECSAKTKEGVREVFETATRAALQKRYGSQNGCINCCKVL

SMILES	growth, % of control at 10 µM [1] [%]	growth, % of control at 10 µM [2] [%]	growth, % of control at 3 µM [3] [%]	growth, % of control at 0.1 µM [4] [%]	GI50 [5] [nM]	growth, % of control at 1 µM [6] [%]	growth, % of control at 1 µM [7] [%]	GI50 ([8]; HCT-15, 48 h) [nM]	growth, % of control at 3 µM [9] [%]	growth, % of control at 1 µM [10] [%]	growth, % of control at 0.3 µM [11] [%]	growth, % of control at 10 µM [12] [%]	growth, % of control at 0.1 µM [13] [%]	growth, % of control at 0.3 µM [14] [%]	growth, % of control at 10 µM [15] [%]	growth, % of control at 0.3 µM [16] [%]	GI50 [19] [nM]	GI50 [20] [nM]	GI50 [23] [nM]	GI50 [35] [nM]	also measured
CCCCCCCCCCCCCCCCS(=O)(=O)N(C)CCC[N+](C)(C)C	-31.4	-54.1	-22.4	97.6	1040	25	66.5	780	39.2	31.5	97.6	8.7	96.7	104	8.8	92.3	440	1000	910	210	growth, % of control at 0.1 µM [17]: 101%; Activity [18]: Active; growth, % of control at 3 µM [21]: 36.3%; growth, % of control at 3 µM [22]: 26.5%; growth, % of control at 1 µM [24]: 72.7%; growth, % of control at 0.1 µM [25]: 91.8%; growth, % of control at 3 µM [26]: 26.7%; growth, % of control at 1 µM [27]: 57%; growth, % of control at 10 µM [28]: -40.9%; growth, % of control at 0.1 µM [29]: 94.9%; growth, % of control at 1 µM [30]: 72.2%; growth, % of control at 0.3 µM [31]: 59.1%; growth, % of control at 0.1 µM [32]: 100%; growth, % of control at 0.3 µM [33]: 97.3%; growth, % of control at 0.3 µM [34]: 91%; growth, % of control at 3 µM [36]: -24.5%; growth, % of control at 10 µM [37]: -10.4%
CCCCCCCCCCCCCCCCCCOP(=O)([O-])OC1CC[N+](C)(C)CC1 [PERIFOSINE]																	440			540	
CCCCCCCCCCCCCCCCS(=O)(=O)N(C)CC[N+](C)(C)C	25.5	-3.1	14.4	98.2	930	32.2	66.8	700	32.7	56.8	90.3	19.5	99.4	91.4	8	95.7	620	1600	1290	330	growth, % of control at 0.1 µM [17]: 99.4%; Activity [18]: Active; growth, % of control at 3 µM [21]: 51.4%; growth, % of control at 3 µM [22]: 41.8%; growth, % of control at 1 µM [24]: 80.3%; growth, % of control at 0.1 µM [25]: 89.4%; growth, % of control at 3 µM [26]: 22.4%; growth, % of control at 1 µM [27]: 55.3%; growth, % of control at 10 µM [28]: 2.7%; growth, % of control at 0.1 µM [29]: 103%; growth, % of control at 1 µM [30]: 69.7%; growth, % of control at 0.3 µM [31]: 74.1%; growth, % of control at 0.1 µM [32]: 95.7%; growth, % of control at 0.3 µM [33]: 101%; growth, % of control at 0.3 µM [34]: 90.3%; growth, % of control at 3 µM [36]: 17.6%; growth, % of control at 10 µM [37]: 6.8%
CCCCCCCCCCCCCCCCS(=O)(=O)NCC(C)(C)C[N+](C)(C)C	99.6	-14.6	14.7	95.6	1520	33.6	73.6	560	49.5	51.8	114	11.7	122	132	16.5	95	560	2210	740	430	growth, % of control at 0.1 µM [17]: 107%; growth, % of control at 3 µM [21]: 101%; growth, % of control at 3 µM [22]: 26.3%; growth, % of control at 1 µM [24]: 54.1%; growth, % of control at 0.1 µM [25]: 106%; growth, % of control at 3 µM [26]: 17.6%; growth, % of control at 1 µM [27]: 46.1%; growth, % of control at 10 µM [28]: 3%; growth, % of control at 0.1 µM [29]: 104%; growth, % of control at 1 µM [30]: 108%; growth, % of control at 0.3 µM [31]: 87.1%; growth, % of control at 0.1 µM [32]: 136%; growth, % of control at 0.3 µM [33]: 102%; growth, % of control at 0.3 µM [34]: 102%; growth, % of control at 3 µM [36]: 0.2%; growth, % of control at 10 µM [37]: 0.7%
CCCCCCCCCCCCCCCC(=O)N1CC[N+](C)(C)CC1								580									480			290	Activity [18]: Active
CCCCCCCCCCCCCCCCS(=O)(=O)NCC(C)(C)C[N+](C)(C)CC	104	-11.1	18.8	108	2790	43.8	88.6	1350	66	69.4	100	21.3	108	138	27.1	103	790	2270	690	570	growth, % of control at 0.1 µM [17]: 109%; growth, % of control at 3 µM [21]: 102%; growth, % of control at 3 µM [22]: 30.4%; growth, % of control at 1 µM [24]: 50.5%; growth, % of control at 0.1 µM [25]: 115%; growth, % of control at 3 µM [26]: 40.2%; growth, % of control at 1 µM [27]: 63.2%; growth, % of control at 10 µM [28]: 0%; growth, % of control at 0.1 µM [29]: 100%; growth, % of control at 1 µM [30]: 99.6%; growth, % of control at 0.3 µM [31]: 108%; growth, % of control at 0.1 µM [32]: 141%; growth, % of control at 0.3 µM [33]: 92.1%; growth, % of control at 0.3 µM [34]: 99.5%; growth, % of control at 3 µM [36]: 12.9%; growth, % of control at 10 µM [37]: -10.9%
C=CC[N+](C)(C)CCN(C)C(=O)CCCCCCCCCCCCC					300												210	100	240	140	GI50 [8]: inactive
